Legend:
Assay type in all cases: cell-based, human
[1] = test system: RBC from healthy subjects; assay: Reactive oxygen species (ROS) in RBC measured as Median Fluorescence Intensity by flow cytometry; settings: 20 min incubation
Method: Blood was collected from four healthy control subjects using citrate as anticoagulant. After low speed centrifugation, the RBC pellet was washed with isotonic phosphate buffered saline (PBS) and re-suspended in PBS (hematocrite 20%). The RBC were prepared as described in Example 7 and the effect of HDL with or without lutein on the oxidative stress status of RBC was determined using RBC from healthy subjects incubated for 20 min in presence of 100 μM HDL isolated from human plasma (Sigma ref L-1567) in presence or absence of 1 μM or 10 μM lutein (Bertin pharma ref. 1001081). Reactive oxygen species (ROS) were measured as Median Fluorescence Intensity (MFI) by flow cytometry similarly to Amer et al., 2003, Eur J Haematol, 70(2):84-90.

RBC from SCD subjects = assay: RBC sensitivity to cholesterol depletion: hemolysis and membrane deformability by ektacytometry, SCD RBC; settings: 10 mM methyl-beta-cyclodextrine, 20 min at 37° C., RBC from 4 SCD subjects
Method: (§1) Blood was collected from four healthy control subjects using citrate as anticoagulant. After low speed centrifugation, the RBC pellet was washed with isotonic phosphate buffered saline (PBS) and re-suspended in PBS (hematocrite 20%).
(§2) To confirm the difference in membrane cholesterol in RBC from SCD compared to healthy subjects, RBC's sensitivity to the cholesterol depleting agent methyl-beta-cyclodextrine was assessed. RBCs were incubated for 20 min at 37° C. in the presence of 2.5 mM or 10 mM methyl-beta-cyclodextrine (Sigma ref. C4555-5G) as described by Motayama et al., 2009, Biol. Pharm. Bull., 32(4) 700-705. RBC membrane deformability was assessed by ektacytometry (Mechatronics) as described by Renoux et al., 2016, Clin Hemorheol Microcirc., 62(2):173-9 at shear rate of 3 Pa and 30 Pa.

RBC from healthy control = assay: RBC sensitivity to cholesterol depletion: hemolysis and membrane deformability by ektacytometry, healthy RBC; settings: 10 mM methyl-beta-cyclodextrine, 20 min at 37° C.
Method: as §1, §2

Row | Compound | decrease in ROS ([1]; 1 μM lutein) | % change in ROS MFI vs control ([1]; Lutein 1 μM) | mean MFI (ROS) ([1]; Lutein 1 μM) | % change in ROS MFI vs control ([1]; Lutein 10 μM) | mean MFI (ROS) ([1]; Lutein 10 μM) | cholesterol depleting effect and resulting hemolysis (RBC from SCD subjects) | hemolysis (RBC from healthy control) | RBC deformability (RBC from healthy control; ektacytometry at 3 Pa and 30 Pa)
1 | CC1=C[C@H](O)CC(C)(C)[C@H]1/C=C/C(C)=C/C=C/C(C)=C/C=C/C=C(C)/C=C/C=C(C)/C=C/C1=C(C)C[C@@H](O)CC1(C)C [Lutein, lutein] | 9.2% | −9.2% | 38.3 | −36.4% | 26.8 |  |  | 
2 | methyl-beta-cyclodextrine |  |  |  |  |  | resistant | marked hemolysis | significant decrease
